The source of these data is patent US20070092467A1, “Oxyacetamide compounds useful for stimulating or inducing the growth and/or retarding the loss of keratin fibers” (L'OREAL, priority 2004, published 2007).

In general, IC50 refers to the midpoint of a concentration-inhibition curve. As a reminder, the inhibition is the drop in the measured response relative to a control, in per cent.

The first assay has as its target T1, PGF synthase (Homo sapiens, UniProt P42330).
T1 construct: made in house
T1 sequence (P42330 1-323): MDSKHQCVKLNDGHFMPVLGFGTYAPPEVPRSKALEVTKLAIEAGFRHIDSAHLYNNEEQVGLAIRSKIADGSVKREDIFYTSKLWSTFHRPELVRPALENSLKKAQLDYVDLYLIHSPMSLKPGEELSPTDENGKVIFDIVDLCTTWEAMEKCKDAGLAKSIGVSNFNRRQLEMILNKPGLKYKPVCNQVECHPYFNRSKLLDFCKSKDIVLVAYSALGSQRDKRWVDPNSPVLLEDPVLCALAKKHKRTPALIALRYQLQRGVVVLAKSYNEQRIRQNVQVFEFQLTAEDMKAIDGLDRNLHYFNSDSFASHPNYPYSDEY
The assay is described as follows: Test on PGF synthase (spectrophotometric, 340 nm, maximum reaction rate). The following applies: IC50fs; 37° C., pH 6.5; read-out: Inhibition of PGFS IC50. Type of assay: biochemical. The procedure:
(§1) For the purposes of the test, this suspension is thawed and stored in ice.
0.950 mL of this buffer (brought to 37° C. beforehand) is introduced into the cuvette of a spectrophotometer (Perkin-Elmer, Lambda 2) thermostatically maintained at 37° C., the measuring wavelength of which is set at 340 nm. 0.05 mL of enzymatic suspension at 37° C. is introduced into the cuvette concomitantly with the recording (corresponding to a reduction in the optical density at 340 nm). The maximum reaction rate is recorded.
Consider `O=C(COc1cccc(Cl)c1)NCc1ccco1` [Compound 23], for which the IC50 was more than 50 µM.

Staying with this assay, now noted: compound at 50 μM; read-out: Inhibition of PGFS % inhibition at 50 μM.
Consider `O=C(COC1CCCCC1)NCc1ccccc1` [Compound 21], for which the inhibition at 50 µM was found to be 24%.
For the compound `O=C(COc1cccc(Cl)c1)NCc1ccco1` [Compound 23], the inhibition at 50 µM is 25%.
As to `O=C(COc1ccccc1)NCc1ccccc1` [Compound 24], the inhibition at 50 µM was 4%.

Another assay addresses T2, type-1 15-PGDH (Homo sapiens, UniProt P15428).
T2 construct: made in house
T2 sequence (P15428 1-266): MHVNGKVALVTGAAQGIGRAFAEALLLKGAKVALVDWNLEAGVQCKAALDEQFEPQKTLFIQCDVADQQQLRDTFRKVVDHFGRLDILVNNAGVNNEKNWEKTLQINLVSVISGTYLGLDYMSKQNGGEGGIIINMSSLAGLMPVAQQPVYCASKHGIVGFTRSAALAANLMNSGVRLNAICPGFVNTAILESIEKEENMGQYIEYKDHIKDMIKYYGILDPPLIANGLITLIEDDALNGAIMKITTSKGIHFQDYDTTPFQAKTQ
The assay can be described thus: Test on type-1 15-PGDH (spectrophotometric, 340 nm, maximum reaction rate). It is filed as biochemical. The following applies: IC50dh; 37° C., pH 7.4; read-out: Inhibition of 15-PGDH IC50. The procedure: 1) Test on type-1 15-PGDH:
as §1
0.965 ml of this buffer (brought to 37° C. beforehand) is introduced into the cuvette of a spectrophotometer (Perkin-Elmer, Lambda 2) thermostatically maintained at 37° C., the measuring wavelength of which is set at 340 nm. 0.035 ml of enzymatic suspension at 37° C. is introduced into the cuvette concomitantly with the recording (corresponding to an increase in the optical density at 340 nm). The maximum reaction rate is recorded.
Turning to `O=C(COc1cccc(Cl)c1)NCc1ccco1` [Compound 23], the IC50 is 16 µM.

Still in this assay, the particulars now being: compound at 50 μM.
Turning to `O=C(COC1CCCCC1)NCc1ccccc1` [Compound 21], the inhibition at 50 µM was found to be 63%.
On to `CCCCCCOCC(=O)NCc1ccccc1` [Compound 22], for which the inhibition at 50 µM worked out at 47%.
`O=C(COc1cccc(Cl)c1)NCc1ccco1` [Compound 23]: the inhibition at 50 µM is 80%.
Turning to `O=C(COc1ccccc1)NCc1ccccc1` [Compound 24], the inhibition at 50 µM stood at 55%.
On to `O=C(COc1cccc(Cl)c1)NCc1ccccc1` [Compound 25], for which the inhibition at 50 µM amounted to 50%.
Turning to `O=C(COc1ccc(Cl)cc1)NCc1ccccc1` [Compound 26], the inhibition at 50 µM was 30%.

The assay is the same for the next values; noted with them: compound at 100 μM; 37° C., pH 7.4, PGE2 50 μM, β-NAD 1.5 mM.
As to `O=C(COCc1ccccc1)NC[C@@H]1CCCO1` (stereo in doubt) [Compound 14, 2-benzyloxy-N-(tetrahydrofuran-2-ylmethyl)acetamide], the inhibition at 100 µM amounted to 50%.
For the compound `Cc1cccc(C)c1NC(=O)COc1cccc2cccnc12` [Compound 1, N-(2,6-dimethylphenyl)-2-(quinolin-8-yloxy)acetamide], the inhibition at 100 µM is 49%.
On the same count and under the same terms, to `O=C(COc1cccc2cccnc12)Nc1ccccc1Cl` [Compound 2] belongs 115%; to `O=C(COc1cccc2cccnc12)Nc1ccccc1C(F)(F)F` [Compound 3, 2-(quinolin-8-yloxy)-N-(2-trifluoromethylphenyl)acetamide], 128%.
For the compound `CCOC(=O)c1ccc(NC(=O)COc2ccc(C(C)=O)cc2)cc1` [Compound 4, 4-[2-(4-Acetylphenoxy)acetylamino]benzoic acid ethyl], the inhibition at 100 µM was determined as 49%.
On the same count and under the same terms, to `Cc1nc2cc(OCC(=O)Nc3ccc(OC(F)(F)F)cc3)ccc2s1` [Compound 5, 2-(2-Methyl-benzothiazol-5-yloxy)-N-(4-trifluoromethoxy-phenyl) acetamide] belongs 53%.
As to `O=C(COc1ccc(-n2ccnc2)cc1)Nc1ccccc1Cl` [Compound 6, N-(2-Chloro-phenyl)-2-(4-imidazol-1-yl-phenoxy)-acetamide], the inhibition at 100 µM turned out to be 54%.
Consider `O=C(COc1ccc2c(c1)C(=O)c1ccccc1-2)Nc1cccc(C(F)(F)F)c1` [Compound 7, 2-(9-Oxo-9H-fluoren-2-yloxy)-N-(3-trifluoromethyl-phenyl) acetamide], for which the inhibition at 100 µM was determined as 61%.
For the compound `O=C(COc1ccc2c(c1)C(=O)c1ccccc1-2)Nc1ccc(C(F)(F)F)cc1` [Compound 8, 2-(9-Oxo-9H-fluoren-2-yloxy)-N-(4-trifluoromethyl-phenyl) acetamide], the inhibition at 100 µM is 65%.
Regarding `CCCCCCc1ccc(NC(=O)COc2ccc3sc(C)nc3c2)cc1` [Compound 9, N-(4-Hexyl-phenyl)-2-(2-methyl-benzothiazol-5-yloxy) acetamide], the inhibition at 100 µM was determined as 69%.
As for `O=C(COc1ccc(-n2cccc2)cc1)Nc1ccccc1C(F)(F)F` [Compound 10], the inhibition at 100 µM turned out to be 71%.
The same measure, in the same setting: to `O=C(COc1ccc2oc3ccccc3c2c1)Nc1ccc(OC(F)(F)F)cc1` [Compound 11, 2-(Dibenzofuran-2-yloxy)-N-(4-trifluoromethoxy-phenyl) acetamide] belongs 74%; to `O=C(COc1ccc(-n2ccnc2)cc1)Nc1ccccc1C(F)(F)F` [Compound 12, 2-(4-imidazol-1-yl-phenoxy)-N-(2-trifluoromethyl-phenyl) acetamide], 125%.
For `COc1cc(C(C)=O)ccc1OCC(=O)Nc1ccccc1C(F)(F)F` [Compound 13, 2-(4-Acetyl-2-methoxy-phenoxy)-N-(2-trifluoromethyl-phenyl) acetamide], the inhibition at 100 µM turned out to be 126%.
In the case of `Cc1ccc(CNC(=O)COCc2ccccc2)o1` [Compound 15, 2-Benzyloxy-N-(5-methyl-furan-2-ylmethyl)-acetamide], the inhibition at 100 µM stood at 51%.
For `O=C(COCc1ccccc1)NC1CCCC1` [Compound 16, 2-Benzyloxy-N-cyclopentylacetamide], the inhibition at 100 µM turned out to be 76%.
As to `CC(C)(C)c1ccc(OCC(=O)NC[Si](C)(C)C)cc1` [Compound 17, 2-(4-tert-Butyl-phenoxy)-N-trimethylsilanylmethyl-acetamide], the inhibition at 100 µM worked out at 50%.
On the same count and under the same terms, the same measure for `C[Si](C)(C)CNC(=O)COCc1ccccc1` [Compound 18, 2-Benzyloxy-N-trimethylsilanylmethyl-acetamide]: 88%; for `C[Si](C)(C)CNC(=O)COc1ccccc1` [Compound 19, 2-Phenoxy-N-trimethylsilanylmethyl-acetamide]: 95%; for `CSCCNC(=O)COc1ccccc1` [Compound 20]: 85%.
`O=C(COCc1ccccc1)NCc1ccccc1` [Compound 27]: the inhibition at 100 µM is 48%.
Regarding `N#Cc1ccc(-c2ccc(OCC(=O)Nc3cccc([N+](=O)[O-])c3)cc2)cc1` [Compound 28], the inhibition at 100 µM came out at 54%.
Consider `O=C(COc1ccccc1)NC[C@@H]1CCCO1` [Compound 29], for which the inhibition at 100 µM amounted to 54%.
`CCCCCCNC(=O)COc1ccccc1` [Compound 31]: the inhibition at 100 µM amounted to 57%.
On the same count and under the same terms, to `CC(=O)c1ccc(OCC(=O)Nc2ccccc2C(F)(F)F)cc1` [Compound 32] belongs 59%.
Take `O=C(COc1ccccc1)NCc1ccccc1` [Compound 33]: the inhibition at 100 µM worked out at 61%.
In the case of `O=C(COc1cccc2cccnc12)Nc1cccc([N+](=O)[O-])c1` [Compound 34], the inhibition at 100 µM amounted to 69%.
Regarding `O=C(COc1ccc(-c2ccccc2)cc1)Nc1ccccc1C(F)(F)F` [Compound 35], the inhibition at 100 µM stood at 70%.
